The text below walks through data of patent US7781428B2 (Pfizer Inc., priority 2006, dated 2010).

Structures can show the parent of a compound that is named as a salt.

For this experiment, the target named is T1, mineralocorticoid receptor (MR) (Homo sapiens, UniProt P08235).
T1 construct: expressed in transfected cells; host or cells: Huh7 (human liver cells)
T1 sequence (P08235 726-964 limits assumed): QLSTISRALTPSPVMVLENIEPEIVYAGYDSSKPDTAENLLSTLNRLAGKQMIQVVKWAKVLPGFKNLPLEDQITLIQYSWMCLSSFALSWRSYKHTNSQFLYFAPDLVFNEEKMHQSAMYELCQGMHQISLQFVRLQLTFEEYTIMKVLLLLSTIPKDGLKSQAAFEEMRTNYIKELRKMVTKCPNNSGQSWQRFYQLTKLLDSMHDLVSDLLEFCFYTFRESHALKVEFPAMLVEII
The experiment in a line: Cell-based Gal4 response element-controlled luciferase reporter assay (MR antagonism). To be noted: Huh7 human liver cells transfected with Gal4 DBD-MR LBD fusion and luciferase reporter; block of agonist-induced activation; overnight incubation. Put shortly:
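Transiently transfected Huh7 cells were treated with agonist at 70-80% of full activation plus compounds for 18-20 h in medium with charcoal/dextran-stripped serum. Luciferase read-out was normalized to β-galactosidase (ONPG, OD420); IC50 came from curve fitting.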
(Reporter assays use an easily measured gene product as a stand-in for the process of interest.)

For orientation: IC50 means the concentration at which inhibition is half-maximal. Consider `C[C@]12CCc3cc(C(=O)O)ccc3C1=NN(c1ccc(C#N)c(Cl)c1)[C@H]2C1CCCC1` [Example 94, (3S,3aR)-2-(3-chloro-4-cyanophenyl)-3-cyclopentyl-3a-methyl-3,3a,4,5-tetrahydro-2H-benzo[g]indazole-7-carboxylic acid], for which the IC50 was 25 nM.
The same measure for `N#Cc1ccc(N2N=C3c4ccc(C(=O)O)cc4CCC3C2C2CCOCC2)cc1` (racemic) [Example 37, 2-(4-cyanophenyl)-3-(tetrahydro-2H-pyran-4-yl)-3,3a,4,5-tetrahydro-2H-benzo[g]indazole-7-carboxylic acid]: greater than 1000 nM; for `COc1cc(N2N=C3c4ccc(C(=O)O)cc4CCC3C2C2CCCC2)ccc1C#N` (racemic) [Example 25, 2-(4-cyano-3-methoxyphenyl)-3-cyclopentyl-3,3a,4,5-tetrahydro-2H-benzo[g]indazole-7-carboxylic acid]: 7 nM; for `COc1cc(N2N=C3c4ccc(C(=O)O)cc4CC[C@@H]3[C@@H]2C2CCCC2)ccc1C#N` [Example 26, (3S,3aR)-2-(4-cyano-3-methoxyphenyl)-3-cyclopentyl-3,3a,4,5-tetrahydro-2H-benzo[g]indazole-7-carboxylic acid]: 13 nM.
Then `C[S+]([O-])CCNC(=O)c1ccc2c(c1)CC[C@H]1C2=NN(c2ccc(C#N)c(Cl)c2)[C@H]1c1ccc(F)cc1` (mixture of isomers) [Example 101, (±)-(3RS,3aRS)-2-(3-chloro-4-cyanophenyl)-3-(4-fluorophenyl)-N-[2-(methylsulfinyl)ethyl]-3,3a,4,5-tetrahydro-2H-benzo[g]indazole-7-carboxamide], with 23 nM.
Then `Cc1cc(N2N=C3c4ccc(C(=O)O)cc4CC[C@H]3[C@H]2c2ccc(F)cc2)ccc1C#N` [Example 8, (3S,3aS)-2-(4-cyano-3-methylphenyl)-3-(4-fluorophenyl)-3,3a,4,5-tetrahydro-2H-benzo[g]indazole-7-carboxylic acid], with 2740 nM; and `N#Cc1ccc(N2N=C3c4ccc(C(=O)O)cc4OC[C@H]3[C@H]2c2ccc(F)cc2)cc1` [Example 60, (3S,3aS)-2-(4-cyanophenyl)-3-(4-fluorophenyl)-2,3,3a,4-tetrahydrochromeno[4,3-c]pyrazole-7-carboxylic acid], with greater than 1000 nM.
For the compound `Cc1cc(N2N=C3c4ccc(C(=O)O)cc4CCC3C2C2CCCC2)ccc1C#N` (racemic) [Example 21, 2-(4-cyano-3-methylphenyl)-3-cyclopentyl-3,3a,4,5-tetrahydro-2H-benzo[g]indazole-7-carboxylic acid], the IC50 worked out at 4 nM.
The same measure for `N#Cc1ccc(N2N=C3c4ccc(C(=O)O)cc4OCC3C2c2ccc(F)cc2)cc1C(F)(F)F` (racemic) [Example 54, 2-(4-cyano-3-(trifluoromethyl)phenyl)-3-(4-fluorophenyl)-2,3,3a,4-tetrahydrochromeno[4,3-c]pyrazole-7-carboxylic acid]: 973 nM; for `N#Cc1ccc(N2N=C3c4ccc(CC(=O)O)cc4OCC3C2c2ccc(F)cc2)cc1` (racemic) [Example 79, (±)-(3RS,3aRS)-[2-(4-cyanophenyl)-3-(4-fluorophenyl)-2,3,3a,4-tetrahydrochromeno[4,3-c]pyrazol-7-yl]acetic acid]: 6920 nM; for `N#Cc1ccc(N2N=C3c4ccc(C(=O)O)cc4CC[C@H]3[C@H]2C2CCCC2)cc1` [Example 20, (3R,3aS)-2-(4-cyanophenyl)-3-cyclopentyl-3,3a,4,5-tetrahydro-2H-benzo[g]indazole-7-carboxylic acid]: 2880 nM.
Consider `Cc1cc(N2N=C3c4ccc(C(=O)O)cc4OCC3C2C(C)C)ccc1C#N` (stereo not drawn) [Example 73, 2-(4-cyano-3-methylphenyl)-3-isopropyl-2,3,3a,4-tetrahydrochromeno[4,3-c]pyrazole-7-carboxylic acid], for which the IC50 was 167 nM.
In the case of `Cc1cc(N2N=C3c4ccc(O)cc4CC[C@H]3[C@H]2c2ccc(F)cc2)ccc1C#N` [Example 82, 4-((3S,3aS)-3-(4-fluorophenyl)-7-hydroxy-3,3a,4,5-tetrahydrobenzo[g]indazol-2-yl)-2-methylbenzonitrile], the IC50 was greater than 1000 nM.
The same measure for `Cc1cc(N2N=C3c4ccc(O)cc4CCC3C2c2ccc(F)cc2)ccc1C#N` (stereo not drawn) [Example 80]: 49 nM; for `N#Cc1ccc(N2N=C3c4ccc(C(=O)O)cc4CCC3C2C2=CCCC2)cc1Cl` (racemic) [Example 42, 2-(3-chloro-4-cyanophenyl)-3-cyclopentenyl-3,3a,4,5-tetrahydro-2H-benzo[g]indazole-7-carboxylic acid]: 15 nM.
For `N#Cc1ccc(N2N=C3c4ccc(C(=O)O)cc4OCC3C2C2CCCC2)cc1Cl` (racemic) [Example 67, 2-(3-chloro-4-cyanophenyl)-3-cyclopentyl-2,3,3a,4-tetrahydrochromeno[4,3-c]pyrazole-7-carboxylic acid], the IC50 turned out to be 146 nM.
Regarding `N#Cc1ccc(N2N=C3c4ccc(C(=O)NCCCC(=O)O)cc4CC[C@@H]3[C@@H]2c2ccc(F)cc2)cc1Cl` (racemic) [Example 106, (±)-4-((3RS,3aRS)-2-(3-chloro-4-cyanophenyl)-3-(4-fluorophenyl)-3,3a,4,5-tetrahydro-2H-benzo[g]indazole-7-carboxamido)butanoic acid], the half-maximal inhibitory concentration (IC50) was determined as 312 nM.
The same measure for `CN(C)Cc1cc(N2N=C3c4ccc(C(=O)O)cc4CCC3C2C2CCCC2)ccc1C#N` (racemic) [Example 29, 2-(4-cyano-3-((dimethylamino)methyl)phenyl)-3-cyclopentyl-3,3a,4,5-tetrahydro-2H-benzo[g]indazole-7-carboxylic acid trifluoroacetate]: greater than 1000 nM.
On to `N#Cc1ccc(N2N=C3c4ccc(C(=O)NCCN5CCCC5)cc4CC[C@@H]3[C@@H]2c2ccc(F)cc2)cc1Cl` (racemic) [Example 111, (±)-(3RS,3aRS)-2-(3-chloro-4-cyanophenyl)-3-(4-fluorophenyl)-N-(2-(pyrrolidin-1-yl)ethyl)-3,3a,4,5-tetrahydro-2H-benzo[g] indazole-7-carboxamide], for which the IC50 is 57 nM.
For the compound `COCc1cc(N2N=C3c4ccc(C(=O)O)cc4CCC3C2C2CCCC2)ccc1C#N` (racemic) [Example 28, 2-(4-cyano-3-(methoxymethyl)phenyl)-3-cyclopentyl-3,3a,4,5-tetrahydro-2H-benzo[g] indazole-7-carboxylic acid], the IC50 stood at 150 nM.
Then `Cc1ccc([C@H]2[C@H]3CCc4cc(C(=O)O)ccc4C3=NN2c2ccc(C#N)c(Cl)c2)o1` [Example 40, (3R,3aR)-2-(3-chloro-4-cyanophenyl)-3-(5-methyl-2-furyl)-3,3a,4,5-tetrahydro-2H-benzo[g]indazole-7-carboxylic acid], with 6 nM; and `N#Cc1ccc(N2N=C3c4ccc(C(=O)O)cc4OCC3C2c2ccc(F)cc2)cc1Cl` (racemic) [Example 55, 2-(3-chloro-4-cyanophenyl)-3-(4-fluorophenyl)-2,3,3a,4-tetrahydrochromeno[4,3-c]pyrazole-7-carboxylic acid], with 849 nM; and `N#Cc1ccc(N2N=C3c4ccc(C(=O)O)cc4CCC3C2C2CCCC2)cc1` (racemic) [Example 18, 2-(4-cyanophenyl)-3-cyclopentyl-3,3a,4,5-tetrahydro-2H-benzo[g]indazole-7-carboxylic acid], with 89 nM.
For `N#Cc1ccc(N2N=C3c4cc(C(=O)NCCN5CCCC5)ccc4CC[C@@H]3[C@@H]2c2ccc(F)cc2)cc1Cl` (racemic) [Example 112, (±)-(3RS13aRS)-2-(3-chloro-4-cyanophenyl)-3-(4-fluorophenyl)-N-(2-(pyrrolidin-1-yl)ethyl)-3,3a,4,5-tetrahydro-2H-benzo[g]indazole-8-carboxamide], the IC50 stood at 1550 nM.
The same measure for `N#Cc1ccc(N2N=C3c4ccc(C(=O)O)cc4OCC3C2C2CCCC2)cc1C(F)(F)F` (racemic) [Example 69, (±)-(3RS,3aRS)-2-[4-cyano-3-(trifluoromethyl)phenyl]-3-cyclopentyl-2,3,3a,4-tetrahydrochromeno[4,3-c]pyrazole-7-carboxylic acid]: 130 nM; for `N#Cc1ccc(N2N=C3c4ccc(C(=O)O)cc4CC[C@@H]3[C@@H]2C2CCCC2)cc1` [Example 19, (3S,3aR)-2-(4-cyanophenyl)-3-cyclopentyl-3,3a,4,5-tetrahydro-2H-benzo[g]indazole-7-carboxylic acid]: 37.6 nM.
The same measure for `N#Cc1ccc(N2N=C3c4ccc(C(=O)O)cc4OCC3C2c2ccc(F)cc2)cc1` (racemic) [Example 58, 2-(4-cyanophenyl)-3-(4-fluorophenyl)-2,3,3a,4-tetrahydrochromeno[4,3-c]pyrazole-7-carboxylic acid]: 3180 nM; for `N#Cc1ccc(N2N=C3c4ccc(C(=O)O)cc4CC[C@H]3[C@H]2c2ccco2)cc1Cl` [Example 45, (3S,3aS)-2-(3-chloro-4-cyanophenyl)-3-(2-furyl)-3,3a,4,5-tetrahydro-2H-benzo[g]indazole-7-carboxylic acid]: greater than 1000 nM.
Regarding `N#Cc1ccc(N2N=C3c4ccc(OS(=O)(=O)C(F)(F)F)cc4OCC3C2c2ccc(F)cc2)cc1Cl` (racemic) [Example 92, 2-(3-chloro-4-cyanophenyl)-3-(4-fluorophenyl)-2,3,3a,4-tetrahydrochromeno[4,3-c]pyrazol-7-yl trifluoromethanesulfonate], the IC50 is greater than 1000 nM.
In the case of `N#Cc1ccc(N2N=C3c4ccc(C(=O)O)cc4OC[C@H]3[C@H]2c2ccc(F)cc2)cc1Cl` [Example 57, (3S,3aS)-2-(3-chloro-4-cyanophenyl)-3-(4-fluorophenyl)-2,3,3a,4-tetrahydrochromeno[4,3-c]pyrazole-7-carboxylic acid], the IC50 was found to be 3510 nM.
